Data taken from patent US20140271734A1, “BILE ACID RECYCLING INHIBITORS FOR TREATMENT OF BARRETT'S ESOPHAGUS AND GASTROESOPHAGEAL REFLUX DISEASE” (LUMENA PHARMACEUTICALS, INC., priority 2013, published 2014).

Tested on: serum bile acids
Assay: Serum bile acids, ascending multiple oral doses of LUM001 in healthy adults
Format: in vivo, human
Settings: 28 days
Experimental: This Phase 1 study was a randomized, double-blind, placebo-controlled study of ascending multiple oral doses of LUM001 in healthy, adult subjects. This study was conducted at a single center. There were 13 LUM001 dosing panels: 10, 20, 60, 100, and 20 mg every morning (qAM) (2) (i.e., the regimen was tested a second time in the study), 5 mg every evening (qPM), 0.5, 1, 2.5, 5, 2.5 (2), 5 (2), and 0.5 to 5 mg qAM dose titration. Most of the dosing panels included subjects treated with matching placebo. No subject participated in more than 1 dosing panel. Subjects were randomized into the study by dosing panel, and all subjects within a dosing panel received study medication at approximately the same time each day. Safety was reviewed for each panel before subsequent panels were initiated. A total of 167 subjects were treated for 28 days, 147 with LUM001 and 20 with placebo. […]
On Day 1 of the Treatment Period, subjects who qualified for enrollment were randomized in the order in which they were admitted to the research facility. […] The safety and tolerability of LUM001 were evaluated by physical examination, ascertainment of adverse signs and symptoms, and clinical laboratory studies. […]
SBA were analyzed as part of the routine clinical analysis of the serum samples collected at each time point.

In the case of `CCCCC1(CCCC)CS(=O)(=O)c2ccc(N(C)C)cc2[C@@H](c2ccc(OCc3ccc(C[N+]45CCN(CC4)CC5)cc3)cc2)[C@H]1O` [LUM001], the Serum bile acids was “significant reduction in serum bile acids”.
